From ChEMBL document CHEMBL4834448, “Toward the assembly and characterization of an encoded library hit confirmation platform: Bead-Assisted Ligand Isolation Mass Spectrometry (BALI-MS)” (Bioorg Med Chem, 2021)
pIC50: −log10 of the molar value.

Molecular target: Bromodomain-containing protein 4 (Homo sapiens, UniProt O60885)
Test: Displacement of Alexafluor 647-conjugated PFI-1 from N-terminal-His6-tagged human BRD4 BD1 domain (44 to 170 residues) incubated for 30 mins by fluorescence polarization assay

pIC50 | Structure (SMILES)
6.10 | CCc1nnc2ccc(N(C)C[C@H]3CC[C@H](N)CC3)nn12
5.62 | Cc1nnc2ccc(N(C)CCC3CCNCC3)nn12
< 4.52 | CNCCN(C)c1ccc2nnc(C)n2n1
4.93 | CN(C[C@H]1CC[C@H](N)CC1)c1ccc2nncn2n1
